Measured values as given in paper PMC4847013, “Pronounced peptide selectivity for melanoma through tryptophan end-tagging” (Scientific Reports, 2016).
Counter-ions that a name gives are not always drawn. Ends that are not written are not given here.

How the values were obtained:
fibroblasts = assay: Lactate dehydrogenase (LDH) assay; format: cell-based; conditions: 48 h, 1% FBS, LDH release relative to 1% Triton X-100, triplicate, Fig. 8a
erythrocytes = assay: Hemolysis assay; format: cell-based; conditions: 5% erythrocytes in PBS pH 7.4, 1 h, 37 °C, peptides 60 or 120 μM, % of 2% Triton X-100, triplicate, Fig. 8b
Description: EDTA-blood was centrifuged at 800 g for 10 min, whereafter plasma and buffy coat were removed. The erythrocytes were washed three times and resuspended to 5% in PBS, pH 7.4. The cells were then incubated with end-over-end rotation for 1 h at 37 °C in the presence of peptides (60 or 120 μM). 2% Triton X-100 (Sigma-Aldrich, St. Louis, USA) served as positive control. The samples were then centrifuged at 800 g for 10 min. The absorbance of hemoglobin release was measured at 540 nm and is expressed as % of Triton X-100 induced hemolysis. Results given represent mean values from triplicate measurements.

tumor cells = test system: tumor cells; set-up: method as in PMID 20876209, PMID 20406839; conditions: cited from earlier work
From the text: However, since it is taken up by tumor cells through passive diffusion, the overall response rate of doxorubicin is only about 30%[51][52].

Compound	Concentration up to which no significant toxicity is seen (LDH release) (fibroblasts)	Concentration up to which hemolysis is very low, at the background level of the negative control (erythrocytes)	overall response rate (tumor cells)
GRRPRPRPRPWWWW [GRR10W4]	at least 50 μM	at least 120 μM	–
COc1cccc2c1C(=O)c1c(O)c3c(c(O)c1C2=O)C[C@@](O)(C(=O)CO)C[C@@H]3O[C@H]1C[C@H](N)[C@H](O)[C@H](C)O1 [doxorubicin, Doxorubicin hydrochloride]	–	–	about 30%
GRRPRPRPRP [GRR10]	at least 50 μM	at least 120 μM	–
